The values below come from US10983109B2, “Compositions and methods for treating B-lymphoid malignancies” (The Children's Hospital of Philadelphia, priority 2013, dated 2021).

What all share (format): cell-based, mouse
The subject of test [1] is protein synthesis. In words: Cycloheximide experiment in Pax5- and CD19-reconstituted Myc5 cells. To be noted: 1 μg/ml, over 30 minutes. From the text:
All figures except FIGS. 3E and 3H represent immunoblotting analyses of proteins indicated on the left. Actin was used as a loading control. In bracketed panels of FIG. 3A, whole cell lysates from Myc5 cells expressing HA-tagged wild-type or mutant (“mut”) ITAM were subjected to immune-precipitation with an α-HA antibody followed by immunoblotting with antibody against total Lyn, Tyr396-phospho-Lyn, or another α-HA antibody. In the bottom panels, lysates from the same cells were immunoblotted with antibodies against c-Myc, and β-actin. […] Mean fluorescent intensities (MFI) are shown in each plot. […] CHX was added at the concentration of 1 μg/ml for 7.5-30 minutes. In the bottom panels Myc-specific bands were quantitated by densitometry, normalized to actin, and plotted against time after treatment. Note that different exposures are shown for parental and Pax5/CD19-transduced cells to allow accurate band quantitation. […]
Myc5 stably transduced with either Pax5 or CD19 retroviral construct were seeded at 1×10^6/ml in 50 ml conical tubes received cycloheximide (Sigma) treatment at 1 μg/ml, while stimulation with 95% ethanol (sigma) served as control. […] Protein samples were resolved on 10% SDS-PAGE for Western blot analysis. c-Myc protein levels were quantified by densitometry using ImageJ 1.43 (National Institutes of Health) with quantitated values normalized to β-actin.

In test [2] the test system is Src family tyrosine kinases (SFTKs). In words: Western blotting with phospho-specific antibodies of MYC5 cells expressing WT or MUT CD19 treated with SU6656. The procedure: (§1) FIG. 11A provides growth rates of MYC5 tumors expressing either wild type or mutant CD19. FIG. 11B provides immunoblotts of protein lysates obtained from individual tumors in FIG. 11A on day 23. […] Phosphorylation was assessed using Western blotting with phospho-specific antibodies. […] GFP-only-expressing MYC5 cells were used as a control. Cell proliferation was measured using the WST assay at indicated time points.
(In general: Immunoblotting shows a protein as a band on a membrane.)

Test [3] concerns MYC5/CD19 cells. In words: WST cell proliferation assay of MYC5/CD19 cells. To be noted: CD19mut/PI3K-disabled cells; GFP-only MYC5 cells as control. The procedure: as §1
Proliferation of Myc5-M5 CD19 transduced cells in vitro were determined using cell proliferation reagent WST-1 (Roche Molecular Biochemicals). Cells were seeded at 1×10^3/well in 100 μl of culture medium were incubated for a total of 72 hours. Proliferation status was determined every 24 hours by incubating with 10 μl of the cell proliferation reagent WST-1 for 4 hours. The absorbance of the treated samples in triplicates were measured against a blank control was measured at 440 nM using a Synergy™ 2 microplate reader (BioTek Instruments).

With `C[C@@H]1C[C@@H]([C@H](O)CC2CC(=O)NC(=O)C2)C(=O)[C@@H](C)C1` [CHX, cycloheximide], in test [1], the Myc levels entry was “clearly down-regulated” and the “retrovirally transduced Pax5 or CD19 protein expression” value was “no observable effects”.
Turning to `CN(C)S(=O)(=O)c1ccc2c(c1)/C(=C/c1cc3c([nH]1)CCCC3)C(=O)N2` [SU6656], in test [2], the phospho-JNK levels entry is reported as “reduced”. The “cell proliferation (WST assay)” value in test [3] is on record as “selectively suppressed proliferation”.
